In PubChem BioAssay AID1645866 (Buhrlage Lab, Dana-Farber Cancer Institute and Novartis …, 2021):
Active and inactive are the calls of the source.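 How the source made its calls: active means in confirmatory dose-response testing, peak deubiquitinase inhibition of 30% or more; inactive means the rest.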

These compounds were tested against Ubiquitin carboxyl-terminal hydrolase 28 (Homo sapiens) (UniProt Q96RU2) (assay: Concentration-response biochemical assay confirming initial hits as inhibitors of ubiquitin-specific protease 28 (AID 1645866)). Conditions: purified USP28, ubiquitin-rhodamine fluorescence, 30 min.
Chain of Ubiquitin carboxyl-terminal hydrolase 28 (Homo sapiens) (Q96RU2 whole entry, looked up): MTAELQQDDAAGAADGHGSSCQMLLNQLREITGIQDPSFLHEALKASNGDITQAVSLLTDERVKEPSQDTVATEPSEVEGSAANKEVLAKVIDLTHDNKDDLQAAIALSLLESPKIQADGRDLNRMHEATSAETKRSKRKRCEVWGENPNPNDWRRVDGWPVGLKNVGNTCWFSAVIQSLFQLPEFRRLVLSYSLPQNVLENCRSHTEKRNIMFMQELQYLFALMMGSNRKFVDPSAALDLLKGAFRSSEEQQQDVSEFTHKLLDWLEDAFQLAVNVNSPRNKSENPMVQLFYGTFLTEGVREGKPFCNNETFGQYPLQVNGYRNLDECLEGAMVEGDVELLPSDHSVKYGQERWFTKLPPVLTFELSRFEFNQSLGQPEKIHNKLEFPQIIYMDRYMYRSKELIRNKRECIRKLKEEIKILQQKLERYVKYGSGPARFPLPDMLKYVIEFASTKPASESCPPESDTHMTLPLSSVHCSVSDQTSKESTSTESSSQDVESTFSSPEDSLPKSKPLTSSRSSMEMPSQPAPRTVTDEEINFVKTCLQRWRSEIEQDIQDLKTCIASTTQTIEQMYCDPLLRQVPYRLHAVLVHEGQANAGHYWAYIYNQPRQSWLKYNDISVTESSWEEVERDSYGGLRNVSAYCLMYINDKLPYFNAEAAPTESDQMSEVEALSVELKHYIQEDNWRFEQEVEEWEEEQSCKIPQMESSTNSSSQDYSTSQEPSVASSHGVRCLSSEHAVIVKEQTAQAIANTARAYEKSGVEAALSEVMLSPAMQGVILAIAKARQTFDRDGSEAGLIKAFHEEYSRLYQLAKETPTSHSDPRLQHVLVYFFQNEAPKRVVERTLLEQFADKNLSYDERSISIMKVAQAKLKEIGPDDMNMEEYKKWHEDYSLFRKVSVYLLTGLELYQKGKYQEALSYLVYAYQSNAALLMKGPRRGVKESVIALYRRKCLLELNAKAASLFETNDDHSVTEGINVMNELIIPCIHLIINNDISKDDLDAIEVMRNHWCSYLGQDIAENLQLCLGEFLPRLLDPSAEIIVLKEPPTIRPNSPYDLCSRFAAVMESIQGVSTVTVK

IC50 | SMILES
24.6 µM | O=C1Nc2c(Cl)cc(Cl)cc2C1(O)c1sc(NC2CCCCC2)nc1-c1ccccc1 (configuration not stated)
20.1 µM | C=C1CCC2[C@](C)(CCC[C@]2(C)C(=O)OC)[C@H]1CCc1ccoc1C[N+](C)(C)Cc1ccccc1 (some centres not stated)
3.82 µM | Cc1noc(C)c1S(=O)(=O)Nc1ccc(C(=O)Nc2ccc3c(c2)OCCO3)cc1
21.7 µM | N#Cc1cccc(S(=O)(=O)N2CCc3nc4ccccc4n3CC2)c1
10 µM | COc1ccc(-c2cc3c(=O)n(CC(=O)Nc4ccccc4Cl)ccn3n2)cc1
43.4 µM | COc1ccc(S(=O)(=O)N2CCC3(CC2)OC(=O)Nc2ccccc23)cc1
1.56 µM | COc1cc(C)c2c(=O)c3c(oc2c1)C(=O)c1c(O)c(OC)cc(O)c1C3=O
10.3 µM | COc1ccc(C(=O)Nc2n[nH]c(C)c2-c2cccc(C)c2)c(OC)c1
> 50 µM (inactive) | O=C(O)c1nccnc1C(=O)N1CCc2ccccc2C1
1.27 µM | COc1ccc(NC(=O)c2cc(-c3cccnc3)n[nH]2)cc1Cl
19.8 µM | CN(C)c1cc(-n2cnc(C(=O)NCc3ccccc3Cl)c2)ncn1
6.78 µM | O=C(Nc1cccc(C(F)(F)F)c1)c1cc2c(s1)-c1ccccc1OC2
38 µM | COC1/C=C/OC2(C)Oc3c(C)c(O)c4c(c3C2=O)C(=O)C=C(NC(=O)/C(C)=C\C=C\C(C)C(O)C(C)C(O)C(C)C(OC(C)=O)C1C)C4=O (configuration not stated)
> 50 µM (inactive) | FC(F)(F)c1ccccc1CCN1CCc2nc3ncc(Cl)cc3cc2C1
> 50 µM (inactive) | O=C(O)COc1ccccc1/C=C1\CCc2c1nc1ccccc1c2C(=O)O
> 50 µM (inactive) | Cc1ccccc1C(=O)OCCN1C(=O)c2cccc3c(N4CCOCC4)ccc(c23)C1=O
19.9 µM | CCOC(=O)CSc1nnc(-c2cnn(-c3ccccc3)c2N)o1
19.4 µM | O=C(CCn1c(=O)c2ccccc2n(Cc2cc(=O)n3ccccc3n2)c1=O)NCCc1ccc(Cl)cc1
12 µM | CCOc1ccc(-c2nc(C#N)c(N3CCN(C(=O)c4ccccc4C)CC3)o2)cc1
> 50 µM (inactive) | O=C(Nc1cc(F)c2nc(N3CCCC3)ccc2c1)c1ccco1
< 0.05 µM | CC1CCc2c(sc3ncnc(OCc4cccc([N+](=O)[O-])c4)c23)C1 (configuration not stated)
18.3 µM | Oc1ccc(Br)cc1CNc1ccc(F)cc1
39.7 µM | COc1ccc(NC(=O)c2ccnc(Nc3ccc(OC)cc3)c2)cc1
> 50 µM (inactive) | CCCCN(C)C(=O)c1cc2c(=O)n3cccc(C)c3nc2n1Cc1ccccc1

IC50 | SMILES
> 50 µM (inactive) | Cc1nnc(-c2nnc(NCc3ccc(Cl)cc3)c3ccccc23)o1
1.98 µM | COc1cc(NC(=O)Cn2nc(-c3ccc(F)cc3)ccc2=O)ccc1-n1cnnn1
22 µM | Fc1cc(F)c2[nH]cc(-c3nnnn3-c3ccc4ccccc4c3)c2c1
5.98 µM | CCN(Cc1ccccc1)S(=O)(=O)c1ccc(C(=O)Nc2ccc3c(c2)OCCO3)cc1
12.2 µM | Cn1cc(-c2noc(Cc3cccc(C(F)(F)F)c3)n2)ccc1=O
28 µM | CC(C)(C)c1ccc(C(=O)Nc2ccc(Cn3cncn3)cc2)cc1
1.01 µM | CCCCOc1ccc(C(=O)Nc2ccc3c(c2)CCC(=O)N3CCC)cc1
4.04 µM | COc1cc(C(=O)Nc2ccc(-c3csc(C)n3)cc2)cc(OC)c1OC
> 50 µM (inactive) | O=C(NCc1nc(-c2ccc3c(c2)[nH]c(=O)n3C2CCCC2)no1)c1ccccc1
> 50 µM (inactive) | Cc1cc(Cl)ccc1NC(=O)c1cc(-c2cccnc2)n[nH]1
31 µM | CSc1ccccc1C(=O)Nc1nc(-c2ccncc2)cs1
14.9 µM | CCCCc1ccc(-c2cc(C(=O)NCCN3CCOCC3)c3cc(Br)ccc3n2)cc1
12.6 µM | CCN1C(SCc2ccccc2F)=NS(=O)(=O)c2ccccc21
47.8 µM | COc1ccc(C2CC(=O)Nc3ccc4ccccc4c32)c(OC)c1OC (configuration not stated)
2.04 µM | O=C(Nc1ccccc1-c1nc2ccccc2[nH]1)c1sc2ccccc2c1Cl
23.5 µM | CCc1ccccc1NC(=O)COc1ccccc1-c1nnc(-c2ccccc2)o1
25 µM | CCc1ccc(NC(=O)COc2cccc(-n3cnnn3)c2)cc1
15 µM | O=C(CC1C(=O)Nc2nc(-c3ccccc3)nn21)Nc1cccc2ccccc12 (configuration not stated)
17.1 µM | CCc1nc(N2CCCC2=O)sc1C(=O)Nc1cccc(C(C)=O)c1
2.58 µM | Cc1ccc(CNC(=O)Cn2cnc3c(cnn3-c3cccc(Cl)c3)c2=O)cc1
> 50 µM (inactive) | Cc1cc(C(F)(F)F)n2nc(C3CCN(C(=O)c4cnn(C)c4C)C3)cc2n1 (configuration not stated)
> 50 µM (inactive) | CN1CCN(c2ccc3nc(-c4ccccc4)c(-c4ccccc4)nc3c2)CC1
> 50 µM (inactive) | CCOC(=O)c1cnc(C(F)(F)F)nc1Sc1n[nH]c(-c2cccs2)n1
5.05 µM | Cc1cc(C(F)(F)F)n(-c2ccc(NC(=O)Nc3cccc(C(F)(F)F)c3)cc2)n1

IC50 | SMILES
29.7 µM | COc1ccccc1N1CCN(C(=O)c2ccc3c(c2)N(Cc2cc(C)ccc2C)C(=O)c2ccccc2S3=O)CC1 (configuration not stated)
> 50 µM (inactive) | Cc1cnc(CN2CCCC(c3ccc4cn[nH]c4n3)C2)cn1 (configuration not stated)
> 50 µM (inactive) | Cc1cc(Cl)ccc1Nc1nc(Nc2cccc(F)c2)nc2nccnc12
25.9 µM | CC1CCN(c2cc(-n3cnc(C(=O)N4CCCCC4)c3)ncn2)CC1
2.56 µM | O=c1c2ccccc2c(-c2nc(-c3ccncc3)no2)cn1-c1ccccc1
11.5 µM | N#Cc1ccc(-c2ccc(OCC(=O)Nc3ccc4c(c3)OCO4)cc2)cc1
23.6 µM | COc1ccc(-c2cc(C(=O)NC3CCCCCC3)[nH]n2)cc1S(=O)(=O)N(C)C
> 50 µM (inactive) | O=C(COc1nc2ccccc2nc1N1CCOCC1)NC(c1ccccc1)c1ccccc1
3.77 µM | CCCc1nc2sc3c(N(CC)CC)ncnc3c2c2c1CCC2
> 50 µM (inactive) | CCOC(=O)C1C(c2ccc(Br)cc2)C2(C(=O)c3ccccc3C2=O)C2C=Cc3ccccc3N12 (configuration not stated)
> 50 µM (inactive) | N#C/C(=C/c1sc(N2CCOCC2)nc1-c1ccccc1)c1ccccn1
31.6 µM | Cn1c(=O)cc(SCC(=O)NC2CCN(Cc3ccccc3)CC2)c2ccc(Cl)cc21
5.14 µM | CC(C)c1ccc(NC(=O)c2cc3ncc(Br)cn3n2)cc1
19 µM | Cc1ccc(Nc2nc(C(=O)NCc3ccc4c(c3)OCO4)cc3occc23)cc1Cl
> 50 µM (inactive) | C/C1=C/C=C/[C@H](C)[C@H](O)[C@@H](C)[C@@H](O)[C@@H](C)[C@H](O)[C@H](C)[C@@H](O)[C@@H](C)/C=C(/C)C(=O)c2c(O)c(C)cc3c2C(=O)C=C(NC1=O)C3=O
14.2 µM | Cc1cc(C(=O)Nc2ccc3nc(N4CCN(c5ncccn5)CC4)cc(C)c3c2)ccc1[N+](=O)[O-]
19.3 µM | O=C1CC(C(=O)Nc2ccccc2Cl)n2nc(-c3ccccc3)cc2N1 (configuration not stated)
> 50 µM (inactive) | CN(C(=O)c1ccncc1)[C@H]1CC[C@@]2(C)C[C@H](c3ccccc3)C[C@](C)(O2)[C@@H]1O
> 50 µM (inactive) | O=c1c(NCCCN2CCCC2)nc2ccncc2n1Cc1ccccc1
2.68 µM | O=C(Cn1cc(C(=O)C(F)(F)F)c2ccccc21)N1CCc2ccccc21
2.06 µM | Cc1nc(SCC(=O)Nc2cc(Cl)ccc2C)c2oc3ccccc3c2n1
3.54 µM | Cc1cc(C)c(O)c(-c2cc(C(=O)Nc3ccccc3Cl)[nH]n2)c1
30.4 µM | O=C(Cn1c(=O)n(Cc2ccc3c(c2)OCO3)c(=O)c2ncccc21)c1ccc(Cl)cc1
> 50 µM (inactive) | CC(C)Cn1cc(OC(=O)c2ccc(F)cc2)c2c1nc(-c1ccc(F)cc1)n1c3ccccc3nc21
